# “Also recorded” adds a separate entry of the source.
# Columns and labels:
# platelet CD62 [1] = test: DDPASFCA in alternative microtiter plates (Costar Serocluster #3897 versus #3898); format: cell-based, human; conditions: Compound A 200 nM
# Description: ADP and DPC38 were used as sources of DDPASs. 2 μL of citrated PRP (DPC3) was added to either Costar Serocluster® 96 well V-bottom microtiterplates (#3897) or #3898 microtiter plates (Costar Serocluster®) (rated as “hydrophilic” in nature by the manufacturer). Platelets were then treated with and without Compound A (200 nM) with the indicated concentrations of ADP. Similarly, DDPAS positive PRP (DPC38) was added to wells of both types of plates and treated with and without Compound A (200 nM). Reactions were incubated without shaking for 120 minutes. After this time, 20 μL of phycoerythrin conjugated anti-CD62 (anti-CD62-PE, Bectin Dickinson) was added. After 30 minutes the samples were diluted with 150 μL flow buffer and bound anti-CD62-PE measured as described in Example 1.
# Delta SC=Delta Fluorescence for Costar Serocluster microtiter plates
# Delta H=Delta Fluorescence for H3898 microtiter plates
# [2] = Thrombocytopenia in a patient who received Compound A; format: in vivo, human; conditions: patient #304
# Description: (§1) The development of DDPASs in the plasma of a patient who received Compound A and developed thrombocytopenia was analyzed using the procedure of Example 1. DDPASFCA was not determined for patient #304 prior to taking Compound A. The patient experienced thrombocytopenia after 3 days of administration of Compound A. DDPASs were subsequently detected in this patient's plasma on day 22 post-administration of Compound A and were also detected 17 months later (FIG. 2). DPC38 was used as a positive control. DPC3 was used as a negative control. […] In a prospective study, a patient with such pre-existing DDPASs could be excluded from the study, possibly preventing the clinically significant thrombocytopenic episode.
# platelet CD62 [3] = test: DDPASFCA: flow cytometric detection of platelet CD62 in plasma samples with and without GPIIb/IIIa antagonist (Example 1 procedure); format: cell-based, human; design: key to Delta Med F12: median PE fluorescence with antagonist minus without antagonist
# Description: 50 μL of citrated plasma from a patient eliciting a thrombocytopenic response during treatment with Compound A was added to Costar Serocluster® 96 well V-bottom microtiter plates (#3897). GPIIb/IIIa antagonist or vehicle was added (2 μL of 5μM compound A, final concentration 200 nM) was added, followed by sufficient PRP or PRP diluted into PPP to give a final platelet number of 1×10^6/well (typically 2 μL PRP). Reactions were incubated without shaking for 120 minutes. After this time, 15 μL of phycoerythrin conjugated anti-CD62 (anti-CD62-PE, Bectin Dickinson) was added. After 30 minutes the samples were diluted with 130 μL flow buffer (FB) consisting of 10 mM HEPES, 5 mM Kcl, 168 mM NaCl, 1 mM MgCl2. Samples were then transferred to 12×75 mm polystyrene and analyzed on a FACScan (Bectin Dickinson). PE fluorescence was read on FL2. Platelets were identified by their characteristic forward and side light scatter. Data from 10,000 events was obtained per sample and analyzed using Bectin Dickinson CellQuest software. The effects of GPIIb/IIIa antagonists on CD62 expression are expressed as the difference in median PE fluorescence for reactions in the presence of GPIIb/IIIa antagonist and CD62 median PE fluorescence in the absence of a GPIIb/IIIa antagonist.
# The procedure was the same as in Example 1 (with modifications outlined in that example) except that where samples were limiting, only 35-40 μL of plasma was used.
# Plasma from a patient who developed a thrombocytopenic episode while under therapy with Compound A was analyzed for the presence of DDPASs that might not be of immunoglobulin nature. Plasma from this previously thrombocytopenic patient (taken 17 months after the thrombocytopenia) as well as normal human plasma (negative control) and plasma from a subject known to contain DDPAS (positive control) were processed to remove immunoglobulins by passage through 1 mL protein A Hitrap® columns (Pharmacia, Inc.). The immunoglobulin-depleted plasma was free of IgG as assessed by an IgGl-specific ELISA and negative for the presence of GPIIb/IIIa antagonist-dependent anti-platelet antibodies as assessed by the DDAB ELISA assay. Plasma samples were then tested in the DDPASFCA as described in Example 1. There was no statistical difference between results for plasma samples containing immunoglobulin and those not containing immunoglobulin, Table 1.
# The detection of a positive DDPAS titer in the presence of a donor plasma was assessed with dilutions of the DDPASFCA-positive plasma DPC38 into the DDPASFCA-negative plasma DPC50 using platelets from DPC50 as follows: Varying volume amounts of control plasma (DPC50), not containing DDPASs, were mixed with a the DDPAS-positive test plasma (total volume 50 μL). 1×10^6 platelets (PRP) was added. Samples were treated as in Example 1 with and without added Compound A. In the concentration range employed, DDPASs could be quantitatively measured in the test plasma. […] Thus, the signal intensity in the DDPASFCA was dose-dependent with respect to the plasma concentration for the DDPASFCA-positive subject DPC38. In contrast DDPASs were undetectable in the control plasma.
# as §1
# platelet CD62 [4] = test: Detection of ADP as a GPIIb/IIIa DDPAS by DDPASFCA; format: cell-based, human; conditions: ADP 0 μM
# Description: Adenosine diphosphate (ADP) was evaluated as a possible DDPAS as follows: Compound A (final concentration 1 μM) or vehicle was added to 25 μL of freshly prepared PRP in wells of a 96-well microtiter plate. Another set of wells received vehicle. After 10 minutes, 2.5 μL of from each well was transferred to microtiter wells containing only 20 μL of anti-CD62-PE. After incubation for 30 minutes, samples were analyzed by flow cytometry as in Example 1.
# [5] = platelet donor DPC38 (DDPAS positive PRP), ADP 0 uM
# [6] = platelet donor DPC50 (DDPASFCA negative), ADP 0 uM
# [7] = Neg. control plasma, IgG status +
# [8] = Neg. control plasma, IgG status − (protein A-depleted)
# [9] = Pos. control plasma, IgG status +
# [10] = Pos. control plasma, IgG status − (protein A-depleted)
# [11] = TCP plasma, IgG status − (protein A-depleted plasma)
compound,measurement,setting,value
"CCCCOC(=O)N[C@@H](CNC(=O)C[C@H]1CC(c2ccc(C(=N)N)cc2)=NO1)C(=O)O [Compound A, 2(S)-[(n-butoxycarbonyl)amino]-3-[[[3-[4-(aminoiminomethyl)phenyl]isoxazolin-5(R)-yl]methylcarbonyl]amino]propionic acid]",Delta CS (Delta Fluorescence for Costar Serocluster microtiter plates),"platelet CD62 [1]; platelet donor DPC3, ADP 0 uM",24
same,Delta H (Delta Fluorescence for H3898 microtiter plates),"platelet CD62 [1]; platelet donor DPC3, ADP 0 uM",28
same,Delta CS (Delta Fluorescence for Costar Serocluster microtiter plates),platelet CD62 [1]; [5],190
same,Delta H (Delta Fluorescence for H3898 microtiter plates),platelet CD62 [1]; [5],338
same,Delta CS (Delta Fluorescence for Costar Serocluster microtiter plates),platelet CD62 [1]; [6],0
same,Delta H (Delta Fluorescence for H3898 microtiter plates),platelet CD62 [1]; [6],−1
same,time to thrombocytopenia after start of administration,[2],3 days
same,+ compound Med F12,"platelet CD62 [3]; DPC38 0 ul, DPC50 50 ul",12
same,Delta Med F12,"platelet CD62 [3]; DPC38 0 ul, DPC50 50 ul",−8
same,+ compound Med F12,"platelet CD62 [3]; DPC38 8 ul, DPC50 42 ul",64
same,Delta Med F12,"platelet CD62 [3]; DPC38 8 ul, DPC50 42 ul",20
same,+ compound Med F12,"platelet CD62 [3]; DPC38 10 ul, DPC50 40 ul",73
same,Delta Med F12,"platelet CD62 [3]; DPC38 10 ul, DPC50 40 ul",17
same,+ compound Med F12,"platelet CD62 [3]; DPC38 12 ul, DPC50 38 ul",88
same,Delta Med F12,"platelet CD62 [3]; DPC38 12 ul, DPC50 38 ul",17
same,+ compound Med F12,"platelet CD62 [3]; DPC38 17 ul, DPC50 33 ul",135
same,Delta Med F12,"platelet CD62 [3]; DPC38 17 ul, DPC50 33 ul",21
same,+ compound Med F12,"platelet CD62 [3]; DPC38 25 ul, DPC50 25 ul",271
same,Delta Med F12,"platelet CD62 [3]; DPC38 25 ul, DPC50 25 ul",79
same,Delta Med F12,"platelet CD62 [3]; DPC38 50 ul, DPC50 0 ul",304
same,+ compound Med F12,"platelet CD62 [3]; DPC38 50 ul, DPC50 0 ul, DPC50 platelets",670
same,Delta (median PE fluorescence with minus without compound A),platelet CD62 [3]; [7],−2 +/− 2
same,FL2 compound A (median PE fluorescence),platelet CD62 [3]; [7],16 +/− 1
same,Delta (median PE fluorescence with minus without compound A),platelet CD62 [3]; [8],−44 +/− 15
same,FL2 compound A (median PE fluorescence),platelet CD62 [3]; [8],30 +/− 9
same,Delta (median PE fluorescence with minus without compound A),platelet CD62 [3]; [9],142 +/− 73
same,FL2 compound A (median PE fluorescence),platelet CD62 [3]; [9],315 +/− 27
same,Delta (median PE fluorescence with minus without compound A),platelet CD62 [3]; [10],122 +/− 52
same,FL2 compound A (median PE fluorescence),platelet CD62 [3]; [10],297 +/− 33
same,Delta (median PE fluorescence with minus without compound A),"platelet CD62 [3]; TCP plasma, IgG status + (plasma)",78 +/− 10
same,FL2 compound A (median PE fluorescence),"platelet CD62 [3]; TCP plasma, IgG status + (plasma), Compound A 200 nM",154 +/− 8
same,Delta (median PE fluorescence with minus without compound A),platelet CD62 [3]; [11],94 +/− 25
same,FL2 compound A (median PE fluorescence),platelet CD62 [3]; [11],156 +/− 20
same,DDPASs in patient plasma,"platelet CD62 [3]; patient #304, 17 months later",also detected
same,DDPASs in patient plasma,"platelet CD62 [3]; patient #304, day 22 post-administration of Compound A",detected; also recorded: DDPASFCA positive
same,DDPASs in plasmas of DDAB ELISA positive patients,"platelet CD62 [3]; pre-dose and study exit plasma, patients without clinically significant thrombocytopenia, except sample 099016",no substantial DDPASs
same,+ compound Med F12,platelet CD62 [4]; Compound A 1 μM alone,11
same,Delta Med F12,platelet CD62 [4]; with minus without Compound A 1 μM,−1
